Laboratory results: patent US20240041877A1, “DOSAGE REGIME AND METHOD FOR TREATING PULMONARY ARTERIAL HYPERTENSION” (Altavant Sciences GmbH, priority 2019, published 2024)

Assay: Study KAR5585-101 Part 1 (SAD): plasma pharmacokinetics after a single oral dose of KAR5585, fasting and fed (incl. dose proportionality and food effect)
Details: for AUC / AUC(0-inf) / concentration at 12 h / Cmax / Vd/F / half-life / Tmax: human, plasma, po; for AUC: AUC0-tau; for AUC(0-inf): AUC0-∞; for Vd/F: Vz/F
[1] = 400 mg, 400 mg KAR5585 single oral, fasted, Cohort 3A, Mean
[2] = 400 mg, 400 mg KAR5585 single oral, fed, Cohort 3B, Geo. Mean
[3] = 400 mg, 400 mg KAR5585 single oral, fed, Cohort 3B, Mean
[4] = 400 mg, Geometric Mean, Cohort 3A (Fasting), 400 mg KAR5585 single oral dose, fasting
[5] = 400 mg, Geometric Mean, Cohort 3B (Fed), 400 mg KAR5585 single oral dose, fed
[6] = 400 mg, 400 mg KAR5585 single oral, fasted, Cohort 3A, Geo. Mean
[7] = 700 mg, 700 mg KAR5585 single oral, fasted, Cohort 4, Geo. Mean
[8] = 700 mg, 700 mg KAR5585 single oral, fasted, Cohort 4, Mean
[9] = 1200 mg, 1200 mg KAR5585 single oral, fasted, Cohort 5, Geo. Mean
[10] = 1200 mg, 1200 mg KAR5585 single oral, fasted, Cohort 5, Mean
[11] = 2000 mg, 2000 mg KAR5585 single oral, fasted, Cohort 6, Geo. Mean
[12] = 2000 mg, 2000 mg KAR5585 single oral, fasted, Cohort 6, Mean

Procedure: Food effect was to be evaluated in Part 1, Period 2. Part 2 was permitted to begin before Part 1 was completed and, in each part, the data from each dose Cohort were to be reviewed for safety before the next dose Cohort was enrolled.
Part 1 had 6 Cohorts of 12 subjects each (for a total of 72 subjects) and Part 2 had 4 Cohorts of 12 subjects each (for a total of 48 subjects). In Part 1, the 12 subjects in Cohort 3 (400 mg)were studied twice, once under fasting conditions (Period 1) and once under fed conditions (Period 2) for food-effect assessment.
Pharmacokinetic data were to be summarized descriptively.

Structure (SMILES): CCOC(=O)[C@@H]1CC2(CCN(c3cc(O[C@H](c4ccc(Cl)cc4-c4ccccc4)C(F)(F)F)nc(N)n3)CC2)CN1 [KAR5585, (S)-ethyl 8-(2-amino-6-((R)-1-(5-chloro-[1,1′-biphenyl]-2-yl)-2,2,2-trifluoroethoxy)pyrimidin-4-yl)-2,8-diazaspiro[4.5]decane-3-carboxylate]
- AUC [1]: 219 ng·h/mL
- AUC [2]: 854 ng·h/mL
- AUC [3]: 868 ng·h/mL
- AUC [4]: 176 ng·h/mL
- AUC [5]: 854 ng·h/mL
- AUC(0-inf) [6]: 288 ng·h/mL
- AUC(0-inf) [1]: 302 ng·h/mL
- AUC(0-inf) [2]: 903 ng·h/mL
- AUC(0-inf) [3]: 915 ng·h/mL
- concentration at 12 h (400 mg, C12, 400 mg KAR5585 single oral, fasted, Cohort 3A, Geo. Mean): 7.4 ng/mL
- concentration at 12 h (400 mg, C12, 400 mg KAR5585 single oral, fasted, Cohort 3A, Mean): 7.45 ng/mL
- concentration at 12 h (400 mg, C12, 400 mg KAR5585 single oral, fed, Cohort 3B, Geo. Mean): 19.7 ng/mL
- concentration at 12 h (400 mg, C12, 400 mg KAR5585 single oral, fed, Cohort 3B, Mean): 21 ng/mL
- Cmax [6]: 42 ng/mL
- Cmax [1]: 52.8 ng/mL
- Cmax [2]: 165 ng/mL
- Cmax [3]: 169 ng/mL
- Cmax [4]: 42 ng/mL
- Cmax [5]: 165 ng/mL
- Vd/F [6]: 8100 L
- Vd/F [1]: 8330 L
- Vd/F [2]: 2730 L
- Vd/F [3]: 2780 L
- half-life (400 mg, t1 (t½, apparent terminal half-life), 400 mg KAR5585 single oral, fasted, Cohort 3A, Geo. Mean): 4.04 h
- half-life (400 mg, t1 (t½, apparent terminal half-life), 400 mg KAR5585 single oral, fasted, Cohort 3A, Mean): 4.08 h
- half-life (400 mg, t1 (t½, apparent terminal half-life), 400 mg KAR5585 single oral, fed, Cohort 3B, Geo. Mean): 4.26 h
- half-life (400 mg, t1 (t½, apparent terminal half-life), 400 mg KAR5585 single oral, fed, Cohort 3B, Mean): 4.45 h
- Tmax (400 mg, tmax, 400 mg KAR5585 single oral, fasted, Cohort 3A, Median): 2.07 h
- Tmax (400 mg, tmax, 400 mg KAR5585 single oral, fed, Cohort 3B, Median): 3 h
- AUC [7]: 362 ng·h/mL
- AUC [8]: 386 ng·h/mL
- AUC(0-inf) [7]: 412 ng·h/mL
- AUC(0-inf) [8]: 436 ng·h/mL
- concentration at 12 h (700 mg, C12, 700 mg KAR5585 single oral, fasted, Cohort 4, Geo. Mean): 9.84 ng/mL
- concentration at 12 h (700 mg, C12, 700 mg KAR5585 single oral, fasted, Cohort 4, Mean): 10.7 ng/mL
- Cmax [7]: 95.2 ng/mL
- Cmax [8]: 99.4 ng/mL
- Vd/F [7]: 8390 L
- Vd/F [8]: 9120 L
- half-life (700 mg, t1 (t½, apparent terminal half-life), 700 mg KAR5585 single oral, fasted, Cohort 4, Geo. Mean): 3.42 h
- half-life (700 mg, t1 (t½, apparent terminal half-life), 700 mg KAR5585 single oral, fasted, Cohort 4, Mean): 3.46 h
- Tmax (700 mg, tmax, 700 mg KAR5585 single oral, fasted, Cohort 4, Median): 1.75 h
- AUC [9]: 296 ng·h/mL
- AUC [10]: 364 ng·h/mL
- AUC(0-inf) [9]: 406 ng·h/mL
- AUC(0-inf) [10]: 462 ng·h/mL
- concentration at 12 h (1200 mg, C12, 1200 mg KAR5585 single oral, fasted, Cohort 5, Geo. Mean): 11 ng/mL
- concentration at 12 h (1200 mg, C12, 1200 mg KAR5585 single oral, fasted, Cohort 5, Mean): 11.8 ng/mL
- Cmax [9]: 68.1 ng/mL
- Cmax [10]: 83 ng/mL
- Vd/F [9]: 14500 L
- Vd/F [10]: 16900 L
- half-life (1200 mg, t1 (t½, apparent terminal half-life), 1200 mg KAR5585 single oral, fasted, Cohort 5, Geo. Mean): 3.4 h
- half-life (1200 mg, t1 (t½, apparent terminal half-life), 1200 mg KAR5585 single oral, fasted, Cohort 5, Mean): 3.58 h
- Tmax (1200 mg, tmax, 1200 mg KAR5585 single oral, fasted, Cohort 5, Median): 2 h
- AUC [11]: 638 ng·h/mL
- AUC [12]: 773 ng·h/mL
- AUC(0-inf) [11]: 667 ng·h/mL
- AUC(0-inf) [12]: 778 ng·h/mL
- concentration at 12 h (2000 mg, C12, 2000 mg KAR5585 single oral, fasted, Cohort 6, Geo. Mean): 26.2 ng/mL
- concentration at 12 h (2000 mg, C12, 2000 mg KAR5585 single oral, fasted, Cohort 6, Mean): 37.4 ng/mL
- Cmax [11]: 95.1 ng/mL
- Cmax [12]: 104 ng/mL
- Vd/F [11]: 20600 L
- Vd/F [12]: 25100 L
- half-life (2000 mg, t1 (t½, apparent terminal half-life), 2000 mg KAR5585 single oral, fasted, Cohort 6, Geo. Mean): 4.76 h
- half-life (2000 mg, t1 (t½, apparent terminal half-life), 2000 mg KAR5585 single oral, fasted, Cohort 6, Mean): 4.84 h
- Tmax (2000 mg, tmax, 2000 mg KAR5585 single oral, fasted, Cohort 6, Median): 2 h
- Vd/F (range across dose levels, single oral KAR5585): 5680 to 25100 L
- half-life (mean apparent elimination half-life, range across dose levels, single oral KAR5585 100-2000 mg): 1.89 to 4.84 h
- Tmax (median tmax, range across cohorts, single oral 100-2000 mg KAR5585, fasting cohorts): 1.5 to 3 h
- time concentrations remained above the LLOQ (single 100 mg KAR5585, fasting): up to 4 hours
- time concentrations remained above the LLOQ (single 200 mg KAR5585, fasting): up to 12 hours
- time concentrations remained above the LLOQ (single 700 mg KAR5585, fasting): up to 12 hours
- time concentrations remained above the LLOQ (single 1200 mg KAR5585, fasting): up to 12 hours
- dose proportionality of AUC0-inf and Cmax (power model, 95% CI of slope) (single dose range 100 to 2000 mg KAR5585, fasting): dose proportionality was not concluded
